Data from patent US10745397B2, “1-Substituted 1,2,3,4-tetrahydro-1,7-naphthyridin-8-amine derivatives and their use as EP4 receptor antagonists” (TAKEDA PHARMACEUTICAL COMPANY LIMITED, priority 2015, dated 2020).

Key:
human EP4 receptor = target: T1, human EP4 receptor (Homo sapiens, UniProt P35408); assay: hEP4 radioligand binding assay ([3H] PGE2 competitive binding, membrane fractions); conditions: 300 nM compound; 1 nM [3H] PGE2
T1 construct: expressed in transfected cells; host or cells: FreeStyle293 (HEK293F) cells, transient transfection with pcDNA3.1(+), total membrane fraction
From the text: The full-length coding sequences for human EP1 (NM_000955), human EP2 (NM_000956), human EP3 (NM_198717) and human EP4 (NM_000958) were cloned into pcDNA3.1(+) vector (Life Technologies, CA, USA). In order to prepare overexpressed EP 1-4 membrane in Freestyle293 cells (Life Technologies, CA, USA), the pcDNA3.1(+) vector encoding a cDNA of the relevant gene was transiently transfected into FreeStyle293 cells using 293Fectin (Life Technologies, CA, USA) according to the manufacturer instruction manual. After 2 days, cultured cells were centrifuged (1,000×g, 10 min, 4° C.) and pellets homogenized by a probe sonicator (Sonics vibracell, Sonics and Materials Inc., USA; 31% Amp, 5 sec pulse, Imin interval, 4 cycles) in ice-cold 50 mM Tris-HCl buffer (pH 7.5 at 25° C.) containing 0.5 mM EDTA, 250 mM Sucrose and 10 mM MgCl2. Cell homogenates were centrifuged (890×g, 10 min, 4° C.), and the supernatant was recovered. Total membrane fractions were isolated by ultracentrifugation (140,000×g, 60 min, 4° C.). Pellets were re-suspended in the same buffer, and stored at −80° C. until use. The protein concentration in homogenate was determined with the BCA Protein Assay Kit (Pierce Biotechnology, Inc., IL, USA) according to the manufacturer protocol.
The binding affinity of the compounds was evaluated using a competitive radioligand binding assay which measured the specific binding of [3H] PGE2 to the human EP4 receptor. Briefly, varying concentrations of NCEs were incubated with cell membrane fractions generated HEK293F cells transiently transfected with human EP4 receptor as described above. Each reaction consisted of 10 μg membrane protein and NCE in 50 mM Tris-HCl, pH-6.0 by NaOH, 10 mM MgCl2 and 0.5 mM EDTA assay buffer. Radioligand, [3H] PGE2 (American Radiochemicals Inc. Specific Activity 180 Ci/mmol), at a final of 1 nM was added to each reaction where the final assay volume was 200 μL and concentration of DMSO was adjusted to 1%. Appropriate controls included total binding in the assay (vehicle control) and control for non-specific binding. Non-specific binding was evaluated by incubating the hEP4 protein with 10 μM unlabeled PGE2 under the same assay conditions as NCEs. The reaction was incubated at room temperature for 2 hours and terminated by harvesting the reaction contents to a PEI coated GF/C filter plate (PerkinElmer). The plate was washed four times with cold 50 mM Tris-HCl, pH-7.5 wash buffer and dried at 50° C. for 2 hours or at 37° C. overnight. [3H] PGE2 bound to the protein was quantified by the addition of 25 μL of Microscint PS (PerkinElmer) and plate was read on MicroBeta2 liquid Scintillation and luminescence counter (PerkinElmer). Data was analyzed using GraphPad Prism 5 (GraphPad Software Inc., San Diego, Calif.) where non-specific binding was normalized to 0% specific binding of [3]PGE2 and vehicle control (DMSO) was normalized to 100% specific binding of [3]PGE2. Binding affinity of NCEs, Ki, was generated using One site—Fit Ki equation in GraphPad Prism 5.

[1] = target: T2, hEP4 (C6 glioma cells overexpressing hEP4) (Homo sapiens, UniProt P35408); assay: hEP4 cell based assay (cAMP), inhibition of PGE2 induced cAMP, HTRF; conditions: 1 μM compound, PGE2 at EC80
T2 construct: host or cells: C6 glioma cells overexpressing hEP4
Method: The functional assay for hEP4 activation and inhibition was carried out via the quantitative determination of agonist, PGE2, induced cAMP response using HTRF in a competitive immunoassay (Cisbio dynamic 2 kit). NCEs at varying concentrations were evaluated for inhibition of PGE2 induced increase in cAMP. Briefly, C6 glioma cells overexpressing hEP4 (Takeda) were cultured in DMEM (low glucose, pyruvate), 10% FBS (Gibco) and PenStep. The cells were harvested on the day of the assay, washed with HBSS+10 mM HEPES (pH 7.4)+0.1% BSA buffer and pre-incubated with varying concentrations of NCE. Each reaction contained 7000 cells and NCEs in HBSS+10 mM HEPES+0.1% BSA assay buffer along with PDE inhibitors IBMX and Ro 20-1724 (final concentration of each inhibitor […]). Following 15 min pre-incubation, the cells were treated with EC80 concentration of agonist PGE2 for 30 min to induce cAMP. Final volume of the assay was 6 μL and DMSO concentration was maintained at 1%. The reaction was terminated with the addition of cAMP labeled with the dye d2 in lysis buffer according to manufacturers' protocol. This was followed by the addition of the anti-cAMP antibody labeled with Cryptate according to the manufacturers' protocol. The reaction was incubated at room temperature in dark for 45 min and the plate was evaluated for fluorescence at 665 nm (FRET) and 620 nm (cryptate emission) on a Flexstation III microplate reader (Molecular Devices, Sunnyvale, Calif.) Ex max: 313 nm; Em1: 620 nm; Em2: 665 nm. Data was analyzed using GraphPad Prism 5 (GraphPad Software Inc., San Diego, Calif.) where cells treated with agonist (EC80) was normalized to 0% inhibition of hEP4 and cells treated with buffer (no agonist) was normalized to 100% inhibition of hEP4. IC50 of NCEs was generated using non-linear regression—Log(inhibitor) vs. response equation in GraphPad Prism 5.

T2 sequence (P35408 whole entry): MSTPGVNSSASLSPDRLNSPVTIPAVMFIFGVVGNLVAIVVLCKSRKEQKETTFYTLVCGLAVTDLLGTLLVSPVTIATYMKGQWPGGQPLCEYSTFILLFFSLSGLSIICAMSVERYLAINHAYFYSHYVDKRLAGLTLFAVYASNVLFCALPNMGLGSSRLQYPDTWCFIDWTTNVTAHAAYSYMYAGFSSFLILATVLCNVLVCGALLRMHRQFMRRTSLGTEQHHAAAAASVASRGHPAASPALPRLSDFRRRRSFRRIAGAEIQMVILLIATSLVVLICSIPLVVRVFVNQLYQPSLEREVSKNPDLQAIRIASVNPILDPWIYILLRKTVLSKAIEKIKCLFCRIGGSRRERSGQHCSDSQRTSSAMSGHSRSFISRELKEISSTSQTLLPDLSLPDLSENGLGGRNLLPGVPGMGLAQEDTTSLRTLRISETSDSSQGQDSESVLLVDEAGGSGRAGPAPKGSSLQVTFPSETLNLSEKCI
T1 sequence (P35408 whole entry): as above

inhibition at 0.3 µM (human EP4 receptor) [%]	inhibition at 1 µM [1] [%]	Structure (SMILES)
85	98	C[C@H](Nc1nccc2c1N(Cc1ccc(C(F)(F)F)cc1)CCO2)c1ccc(C(N)=O)cc1 [Example D1, 4-[(1S)-1-[[4-[[4-(Trifluoromethyl)phenyl]methyl]-2,3-dihydropyrido[4,3-b][1,4]oxazin-5-yl]amino]ethyl]benzamide]
93	79	O=C(O)c1ccc(C2(Nc3nccc4c3N(Cc3ccc(F)cc3)CCO4)CC2)cc1 [Example B18, 4-[1-[[4-[(4-fluorophenyl)methyl]-2,3-dihydropyrido[4,3-b][1,4]oxazin-5-yl]amino]cyclopropyl]benzoic acid]
80	85	C[C@H](Nc1nccc2c1N(CCc1cccc(Cl)c1)CCO2)c1ccc(C(=O)O)cc1 [Example B40, 4-[(1S)-1-[[4-[2-(3-chlorophenyl)ethyl]-2,3-dihydropyrido[4,3-b][1,4]oxazin-5-yl]amino]ethyl]benzoic acid]
98	99	COc1ccc(CN2CCOc3ccnc(N[C@@H](C)c4ccc(C(=O)O)cc4)c32)cc1 [Example B15, 4-[(1S)-1-[[4-[(4-methoxyphenyl)methyl]-2,3-dihydropyrido[4,3-b][1,4]oxazin-5-yl]amino]ethyl]benzoic acid]
93	88	O=C(O)c1ccc(C2(Nc3nccc4c3N(Cc3cccc(F)c3)CCO4)CC2)cc1 [Example B16, 4-[1-[[4-[(3-fluorophenyl)methyl]-2,3-dihydropyrido[4,3-b][1,4]oxazin-5-yl]amino]cyclopropyl]benzoic acid]
89	100	C[C@H](Nc1nccc2c1N(Cc1ccc(F)c(F)c1)CCO2)c1ccc(C(=O)O)cc1 [Example B6, 4-[(1S)-1-[[4-[(3,4-difluorophenyl)methyl]-2,3-dihydropyrido[4,3-b][1,4]oxazin-5-yl]amino]ethyl]benzoic acid]
74	100	C[C@H](Nc1nccc2c1N(Cc1ccc(C(F)(F)F)cc1)CCO2)c1ccc(C(=O)O)cc1 [Example B5, 4-[(1S)-1-[[4-[[4-(trifluoromethyl)phenyl]methyl]-2,3-dihydropyrido[4,3-b][1,4]oxazin-5-yl]amino]ethyl]benzoic acid]
87	87	COc1ccc(CN2CCOc3ccnc(NC4(c5ccc(C(=O)O)cc5)CC4)c32)cc1 [Example B21, 4-[1-[[4-[(4-methoxyphenyl)methyl]-2,3-dihydropyrido[4,3-b][1,4]oxazin-5-yl]amino]cyclopropyl]benzoic acid]
87	77	C[C@H](Nc1nccc2c1N(Cc1ccc(-c3ccccc3)cc1)CCO2)c1ccc(C(=O)O)cc1 [Example B30, 4-[(1S)-1-[[4-[(4-phenylphenyl)methyl]-2,3-dihydropyrido[4,3-b][1,4]oxazin-5-yl]amino]ethyl]benzoic acid]
100	93	C[C@H](Nc1nccc2c1N(CC1CCCCC1)CCO2)c1ccc(C(=O)O)cc1 [Example B39, 4-[(1S)-1-[[4-(cyclohexylmethyl)-2,3-dihydropyrido[4,3-b][1,4]oxazin-5-yl]amino]ethyl]benzoic acid]
93	87	Cc1ccc(CN2CCOc3ccnc(NC4(c5ccc(C(=O)O)cc5)CC4)c32)cc1 [Example B26, 4-[1-[[4-(p-tolylmethyl)-2,3-dihydropyrido[4,3-b][1,4]oxazin-5-yl]amino]cyclopropyl]benzoic acid]
100	98	C[C@H](Nc1nccc2c1N(Cc1cccc(Cl)c1)CCC2)c1ccc(C(=O)O)cc1 [Example B45, 4-[(1S)-1-[[1-[(3-chlorophenyl)methyl]-3,4-dihydro-2H-1,7-naphthyridin-8-yl]amino]ethyl]benzoic acid]
